According to patent US20220401385A1, “Combination Therapy Based on PD-1 Signaling Inhibitors” (Kyoto University, priority 2019, published 2022):
“Also recorded” adds a separate entry of the source.

Key:
[1] = system: CD8+ T cells in draining lymph nodes; assay: CD3/CD28 restimulation of draining lymph node CD8+ T cells of treated mice (3H uptake, IFN-γ ELISA); assay type: in vivo, C57BL/6 mice; conditions: combined use of SPD, 24 hours
Procedure: (§1) FIG. 2-1 a) Treated mice were analyzed for draining lymph nodes and the inside of tumor. Briefly, draining lymph nodes of mice were isolated 13 days after tumor inoculation, and stained with antibodies to CD8 and Sca-1. FACS diagram and percentages of Sca-1^+ cells in CD8^+ T cells are shown. b) CD8^+ T cells in isolated draining lymph nodes were stimulated with CD3/CD28 antibody beads. After 24 hours, cell proliferation was examined by means of ^3H uptake. At the same time, IFN-γ concentration in culture supernatant was measured. c) Tumor from the same mice as described above was treated with collagenase. Then, expression rates of PD-1 and Tim3 in tumor-infiltrating CD8^+ T cells were analyzed. d) Oxygen consumption rate (OCR) and extracellular acidification rate (ECAR) of draining lymph node CD8^+ T cells were measured with a Seahorse analyzer (N=3 wells). For statistical analysis, ANOVA was used. * p<0.05, ** p<0.01, *** p<0.001, **** p<0.0001.
IFN-γ levels in culture supernatant were measured quantitatively with mouse IFN-γ kit (BioLegend) following the instructions on the kit.

[2] = system: draining lymph node CD8+ T cells; assay: Seahorse OCR/ECAR of draining lymph node CD8+ T cells of treated mice; assay type: in vivo, C57BL/6 mice; conditions: combined therapy compared to PD-1 inhibition alone
Procedure: as §1
(§2) Oxygen consumption rates were measured using an XF96 Extracellular Flux Analyzer (Seahorse Bioscience). CD8^+ T cells (4×10^5) per well were seeded in a determined XF96 plate. The four chemical modulators of mitochondrial oxidative phosphorylation, which came with an XF Cell Mito Stress Test Kit (Seahorse Bioscience), were added to the module sequentially. In brief, basal OCR measurement was performed […] sequential addition of oligomycin, FCCP, and rotenone/antimycin A. SRC and ATP production rates were calculated by the following formulas:
(§3) SRC (pmo; 02/min)=OCRmaximal−OCRbasal
(§4) mitoATP (pmol ATP/min)=(OCRbasal−OCRoligo)×5.5.

CD44 high CD8+ T cells [3] = assay: Seahorse OCR, ATP production and SRC in vitro, CD44 high cells; assay type: cell-based, mice; conditions: SPD 0.2 μM
Procedure: (§5) FIG. 4 CD8^+ T cells were isolated from the spleen of mice without tumor inoculation, and further isolated into CD44^+ (CD44 high) and CD44^− (CD44 low) cell populations. a) CD44 low cells were simulated with CD3/CD28 antibody beads and SPD (0.2 μM). After 30 minutes, 1 hour, 2 hours and 72 hours, OCR was measured with a Seahorse analyzer. b) At the same time, total ATP production and glycolytic pathway-derived or mitochondrial activity-derived ATP production were calculated at 30-minute, 1-hour and 2-hour. c) CD44 low cells (2×10^5 cells) were stimulated with CD3/CD28 antibody beads and SPD (0.2 μM). After 24 hours, cell proliferation was examined by means of 3H uptake. d) Spare respiratory capacity (SRC) was calculated from the OCR measurement after 72 hours in a), and results with and without SPD were compared. e) CD44 low cells were stimulated with CD3/CD28 antibody beads and SPD (0.2 μM). After 24 hours, frequencies between apoptotic and viable cells were calculated by PI and Annexin staining. f-j) CD44 high cells were analyzed under the same conditions and by the same methods as described in a-e) above. As regards statistical analysis, t-test was used for comparison of two groups, and ANOVA was used for comparison of three or more groups. * p<0.05, ** p<0.01, *** p<0.001, **** p<0.0001.
as §2, §3, §4

CD44 low CD8+ T cells [4] = assay: Cell proliferation by 3H uptake in vitro, CD44 low cells; assay type: cell-based, mice; conditions: SPD 0.2 μM, 24 hours
Procedure: as §5

CD44 low CD8+ T cells [5] = assay: Mitochondria-related proteomics in vitro, CD44 low cells; assay type: cell-based, mice; conditions: late phase, 44 hours after SPD stimulation
Procedure: (§6) FIG. 6 CD8^+ T cells were isolated from the spleen of mice without tumor inoculation, and further isolated into CD44^+ (CD44 high) and CD44^− (CD44 low) cell populations. CD44 low cells and CD44 high cells were simulated with CD3/CD28 antibody beads and SPD (0.2 μM). After 1 hour and 44 hours, cells were collected and proteomics analyses regarding mitochondria-related proteins were conducted. A heat map showing the categories of respective signaling pathways, associated protein names and comparison of their expression levels is given.
(§7) T cells were prepared by two methods. For in vivo analysis, 13 days after tumor inoculation and 3 days after the start of therapy, draining lymph nodes from 5 mice were pooled, followed by isolation of CD8^+ T cells. From the isolated CD8^+ T cells, three samples each consisting of 1×10^6 cells were prepared and used for analysis. For in vitro experiments, 2×10^5 CD8^+ T cells stimulated with 0.2 μM spermidine for 1 hour were used. For mass spectrometry analysis, a Tandem Mass Tag (TMT) system or a Data Independent Acquisition (DIA) system was used. In the analysis of in vivo CD8^+ T cells (FIG. 3), those proteins which increased by 1.5-fold or more or decreased by 0.6-fold or less were extracted.

CD44 high CD8+ T cells [6] = assay: Mitochondria-related proteomics in vitro, CD44 high cells; assay type: cell-based, mice; conditions: late phase, 44 hours after SPD stimulation
Procedure: as §6, §7

T cells = assay: Function of oxidative phosphorylation in T cells (OCR, Seahorse); assay type: cell-based
Procedure: The function of oxidative phosphorylation in T cells may be measured as described below. Briefly, the oxygen consumption rate (OCR) of T cells is measured with an extracellular flux analyzer (Seahorse). Baseline OCR and the OCR for the case where carbonyl cyanide-4 (trifluoromethoxy) phenylhydrazone (FCCP), or a reagent that is activated to the maximum extent upon addition of a mitochondrial function terminating agent (oligomycin, Antimycine A/Rotenone: A/R), is added are compared and calculated (Divakaruni A S, Paradyse A, Ferrick D A, Murphy A N, Jastroch M. 2014. Analysis and Interpretation of Microplate-Based Oxygen Consumption and pH data. In Methods in Enzymology, Volume 547, Chapter 16, 309-354).
If, in the above-described measurement method, baseline OCR is increased, spare respiratory capacity (SRC) is increased, or mitochondrial ATP production rate (mitoATP) is increased, it may well be concluded that the function of oxidative phosphorylation in T cells has increased.

For NCCCCNCCCN [SPD, spermidine], the “cell proliferation of isolated CD8+ T cells as stimulated with CD3” value ([1]; 3H uptake) was “enhanced”, the “IFN-γ production of isolated CD8+ T cells as stimulated with CD3” value ([1]; culture supernatant) was “enhanced” and the “glycolysis (ECAR) of CD8+ T cells” value [2] was “increased”. The “oxygen consumption (OCR) of CD8+ T cells” value [2] was “increased”, the “spare respiratory capacity (SRC) of CD8+ T cells” value [2] was “increased” and the “ATP production via glycolysis (glyco ATP)” value (CD44 high CD8+ T cells [3]; 1 to 2 hours after stimulation) was “not enhanced”. For the same compound, the “ATP production via mitochondria (mito ATP)” value (CD44 high CD8+ T cells [3]; 1 to 2 hours after stimulation) was “not enhanced”, the ATP production (CD44 high CD8+ T cells [3]; 30 minutes after stimulation) was “tendency to be enhanced” and the “mitochondrial oxygen consumption (OCR)” value (CD44 high CD8+ T cells [3]; 30 minutes after stimulation) was “increased”. The “mitochondrial oxygen consumption (OCR)” value (CD44 high CD8+ T cells [3]; 1 hour and 2 hours after stimulation) was “decreased”, the “spare respiratory capacity (SRC)” value (CD44 high CD8+ T cells [3]; 72 hours) was “enhanced; also recorded: significantly high” and the “mitochondrial oxygen consumption (OCR)” value (CD44 high CD8+ T cells [3]; 72 hours after stimulation) was “increased again”. For the same compound, the cell proliferation (CD44 low CD8+ T cells [4]) was “increased”, the “expression levels of mitochondrial proteins and proteins of mitochondria-related metabolism” value (CD44 low CD8+ T cells [5]) was “high” and the “expression levels of mitochondrial proteins and proteins of mitochondria-related metabolism” value (CD44 high CD8+ T cells [6]) was “high”. The “function of oxidative phosphorylation in T cells” value (T cells) was “increased”.
